Measurements reported in US20240317706A1, “COMPOUNDS THAT MEDIATE PROTEIN DEGRADATION AND METHODS OF USE THEREOF” (Monte Rosa Therapeutics, Inc., priority 2021, published 2024).

Tests used:
CDK2 = biological target: T1, CDK2 (Homo sapiens, UniProt P24941); assay: HiBiT assay (CDK2 degradation); format: cell-based; conditions: HEK293 clonal line with CRISPR KI HiBiT tag on CDK2, 24 hours, HiBiT Lysis Reagent
T1 construct: HEK293 clonal lines with CRISPR KI HiBiT tag on CDK2 proteins; host or cells: HEK293 clonal line, CRISPR knock-in HiBiT-CDK2, stably expressing LgBiT
Protocol: HEK293 clonal lines with CRISPR KI HiBiT tag on CDK2 proteins and stably expressing LgBiT protein were obtained from Promega (Madison, WI). Cells were plated at 5000 cells per well using Multiflo (BioTek) in 384-well white solid bottom plates (Corning, 3570BC) in 25 ul volume in DMEM media (DMEM, high glucose, HEPES, no phenol red (ThermoFisher Scientific, 21063029)) containing 10% FBS (Corning, 35-075-CV), 1% Penicillin/Streptomycin (ThermoFisher Scientific, 15140-122). Cells were incubated for 16 hours at 37° C., 5% CO2. 75 nL of a compound at 30 μM were dosed into the plate using an Echo® 650 liquid handler (Labcyte). Cells were incubated at 37° C., 5% CO2 for 24 hours. 5 ul of HiBiT Lysis Reagent (Promega, N3030) is added using Combi Multidrop (ThermoFisher Scientific), plates are incubated for 15′ at 37° C., 5% CO2 and then signal was read on a Pherastar FSX using “LUM plus” optic module.
Analysis was performed in Scinamic (Scinamic, Cambridge, MA). Luminescence response (R) was calculated by the formula: response=100*(S−N)/(P−N) where S is the signal of the well, N and P the mean negative and positive control values respectively of the same plate. The luminescence response was then fitted in Scinamic using a 3-parameter agonist logistic fit (hillslope=1, EC50>0, top/bottom unconstrained).

CRBN-DDB1 = CRBN-DDB1 (Homo sapiens, UniProt Q96SW2); assay: Compound binding to CRBN by HTRF assay; conditions: CRBN-DDB1 2.5 nM, Cy5-Thalidomide 100 nM, 30 min; Ki from geometric mean IC50 by Cheng-Prustoff transformation
In short: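 HTRF displacement of Cy5-thalidomide probe (100 nM) from His-CRBN-DDB1 (2.5 nM) with anti-His terbium cryptate, in HEPES/NaCl/TCEP/EDTA/Tween20 buffer. 10-point 1:3 compound series, 30 min at ambient temperature; signal normalised to DMSO and lenalidomide controls, IC50 fitted and Ki derived by Cheng-Prusoff.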

CRBN-DDB1, sequence (Q96SW2 whole entry): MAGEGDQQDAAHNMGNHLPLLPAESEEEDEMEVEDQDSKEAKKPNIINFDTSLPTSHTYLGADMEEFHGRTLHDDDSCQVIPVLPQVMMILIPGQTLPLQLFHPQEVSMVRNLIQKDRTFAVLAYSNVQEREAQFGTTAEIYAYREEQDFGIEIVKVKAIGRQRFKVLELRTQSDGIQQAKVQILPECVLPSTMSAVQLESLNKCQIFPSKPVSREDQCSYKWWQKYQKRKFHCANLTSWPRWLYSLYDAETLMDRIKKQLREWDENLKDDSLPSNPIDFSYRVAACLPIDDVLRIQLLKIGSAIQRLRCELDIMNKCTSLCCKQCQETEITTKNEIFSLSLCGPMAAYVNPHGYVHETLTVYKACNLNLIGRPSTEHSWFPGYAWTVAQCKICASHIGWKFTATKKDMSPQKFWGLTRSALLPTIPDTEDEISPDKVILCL
CRBN-DDB1, sequence (Q16531 whole entry partner): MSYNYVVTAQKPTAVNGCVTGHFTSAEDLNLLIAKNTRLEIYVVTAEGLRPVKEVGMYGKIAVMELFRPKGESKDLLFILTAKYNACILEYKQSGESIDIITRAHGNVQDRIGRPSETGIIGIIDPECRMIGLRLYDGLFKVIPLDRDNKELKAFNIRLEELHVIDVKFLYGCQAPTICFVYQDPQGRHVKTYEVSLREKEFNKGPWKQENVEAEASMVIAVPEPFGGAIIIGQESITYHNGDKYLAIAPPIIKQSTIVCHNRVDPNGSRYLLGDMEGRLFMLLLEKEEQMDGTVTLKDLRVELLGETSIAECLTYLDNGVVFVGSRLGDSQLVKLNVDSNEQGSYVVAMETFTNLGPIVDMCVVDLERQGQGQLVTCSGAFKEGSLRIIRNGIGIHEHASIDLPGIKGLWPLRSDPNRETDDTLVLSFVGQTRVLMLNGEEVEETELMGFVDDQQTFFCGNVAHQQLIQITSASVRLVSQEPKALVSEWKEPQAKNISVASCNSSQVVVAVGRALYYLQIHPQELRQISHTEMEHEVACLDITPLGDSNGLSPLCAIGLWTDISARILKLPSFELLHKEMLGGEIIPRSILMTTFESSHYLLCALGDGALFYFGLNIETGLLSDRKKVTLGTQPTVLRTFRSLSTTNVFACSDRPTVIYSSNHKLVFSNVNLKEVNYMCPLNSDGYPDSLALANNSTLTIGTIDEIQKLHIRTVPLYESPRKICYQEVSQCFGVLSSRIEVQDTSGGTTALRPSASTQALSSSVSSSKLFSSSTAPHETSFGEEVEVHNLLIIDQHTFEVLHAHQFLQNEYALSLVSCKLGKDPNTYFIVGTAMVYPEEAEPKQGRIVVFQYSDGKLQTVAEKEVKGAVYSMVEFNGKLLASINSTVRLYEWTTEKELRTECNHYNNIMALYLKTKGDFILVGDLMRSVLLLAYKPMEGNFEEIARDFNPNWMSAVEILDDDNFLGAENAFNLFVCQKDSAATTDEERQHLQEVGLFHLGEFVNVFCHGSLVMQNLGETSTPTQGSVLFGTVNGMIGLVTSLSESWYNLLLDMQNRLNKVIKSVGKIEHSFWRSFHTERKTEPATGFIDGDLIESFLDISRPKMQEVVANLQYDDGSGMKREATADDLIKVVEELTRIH

Row | SMILES | Dmax (CDK2) | Ki (CRBN-DDB1)
1 | CCOC1CC(COC(=O)NCc2ccc3c(c2)C(=O)N(C2CCC(=O)NC2=O)C3)C1 (stereo not drawn) [Compound 67, (3-ethoxycyclobutyl)methyl N-{[2-(2,6-dioxopiperidin-3-yl)-3-oxo-2,3-dihydro-1H-isoindol-5-yl]methyl}carbamate] | 10 to 50% | 100 to 1000 nM
2 | CO[C@H]1C[C@@H](OC(=O)NCc2ccc3c(c2)C(=O)N(C2CCC(=O)NC2=O)C3)C1 (stereo partly drawn) [Compound 23, (1s,3s)-3-methoxycyclobutyl N-{[2-(2,6-dioxopiperidin-3-yl)-3-oxo-2,3-dihydro-1H-isoindol-5-yl]methyl}carbamate] | ≤ 10% | 100 to 1000 nM
3 | CC1(C)CCC1OC(=O)NCc1ccc2c(c1)C(=O)N(C1CCC(=O)NC1=O)C2 (stereo not drawn) [Compound 24, 2,2-dimethylcyclobutyl N-{[2-(2,6-dioxopiperidin-3-yl)-3-oxo-2,3-dihydro-1H-isoindol-5-yl]methyl}carbamate] | 10 to 50% | 100 to 1000 nM
4 | CN1CCC(COC(=O)NCc2ccc3c(c2)C(=O)N(C2CCC(=O)NC2=O)C3)C1 (stereo not drawn) [Compound 39, (1-methylpyrrolidin-3-yl)methyl N-{[2-(2,6-dioxopiperidin-3-yl)-3-oxo-2,3-dihydro-1H-isoindol-5-yl]methyl}carbamate] | ≤ 10% | 100 to 1000 nM
5 | O=C1CCC(N2Cc3ccc(CNC(=O)O[C@@H]4C[C@H]5CC[C@@H]4O5)cc3C2=O)C(=O)N1 (mixture of isomers) [Compound 27, rac-(1R,2S,4S)-7-oxabicyclo[2.2.1]heptan-2-yl N-{[2-(2,6-dioxopiperidin-3-yl)-3-oxo-2,3-dihydro-1H-isoindol-5-yl]methyl}carbamate] | ≤ 10% | 100 to 1000 nM
6 | O=C1CCC(N2Cc3ccc(CNC(=O)OC4CC5(CCOCC5)C4)cc3C2=O)C(=O)N1 (stereo not drawn) [Compound 90, 7-oxaspiro[3.5]nonan-2-yl N-{[2-(2,6-dioxopiperidin-3-yl)-3-oxo-2,3-dihydro-1H-isoindol-5-yl]methyl}carbamate] | 10 to 50% | 100 to 1000 nM

The next lines start with the values.

Row | Dmax (CDK2) | Ki (CRBN-DDB1) | SMILES
7 | 10 to 50% | 100 to 1000 nM | O=C1CCC(N2Cc3ccc(CNC(=O)OCC4CC5(CCCC5)CO4)cc3C2=O)C(=O)N1 (stereo not drawn) [Compound 94, {2-oxaspiro[4.4]nonan-3-yl}methyl N-{[2-(2,6-dioxopiperidin-3-yl)-3-oxo-2,3-dihydro-1H-isoindol-5-yl]methyl}carbamate]
8 | 50 to 80% | ≤ 100 nM | CC1(CCCOC(=O)NCc2ccc3c(c2)C(=O)N(C2CCC(=O)NC2=O)C3)CC1 (stereo not drawn) [Compound 65, 3-(1-methylcyclopropyl)propyl N-{[2-(2,6-dioxopiperidin-3-yl)-3-oxo-2,3-dihydro-1H-isoindol-5-yl]methyl}carbamate]
9 | 50 to 80% | ≤ 100 nM | O=C1CCC(N2Cc3ccc(CNC(=O)OCC4C(F)(F)C45CC5)cc3C2=O)C(=O)N1 (stereo not drawn) [Compound 86, {2,2-difluorospiro[2.2]pentan-1-yl}methyl N-{[2-(2,6-dioxopiperidin-3-yl)-3-oxo-2,3-dihydro-1H-isoindol-5-yl]methyl}carbamate]
10 | ≤ 10% | ≤ 100 nM | CN1C(=O)CCC1COC(=O)NCc1ccc2c(c1)C(=O)N(C1CCC(=O)NC1=O)C2 (stereo not drawn) [Compound 36, (1-methyl-5-oxopyrrolidin-2-yl)methyl N-{[2-(2,6-dioxopiperidin-3-yl)-3-oxo-2,3-dihydro-1H-isoindol-5-yl]methyl}carbamate]
11 | 50 to 80% | ≤ 100 nM | CC(C)(CCOC(=O)NCc1ccc2c(c1)C(=O)N(C1CCC(=O)NC1=O)C2)C1CC1 (stereo not drawn) [Compound 69, 3-cyclopropyl-3-methylbutyl N-{[2-(2,6-dioxopiperidin-3-yl)-3-oxo-2,3-dihydro-1H-isoindol-5-yl]methyl}carbamate]
12 | 10 to 50% | ≤ 100 nM | O=C1CCC(N2Cc3ccc(CNC(=O)OCC4(c5ccccc5)CC(F)(F)C4)cc3C2=O)C(=O)N1 (stereo not drawn) [Compound 38, (3,3-difluoro-1-phenylcyclobutyl)methyl N-{[2-(2,6-dioxopiperidin-3-yl)-3-oxo-2,3-dihydro-1H-isoindol-5-yl]methyl}carbamate]
